Measurements as given in patent publication US20250059188A1, “ARYLSULPHONAMIDE COMPOUNDS” (Anaxis Pharma Pty Ltd, priority 2021, published 2025).

Columns and labels:
[1] = test system: U937 cells; assay: Counter screen: U937 cell viability without TSQ cocktail (off-target effect); parameters: species or system human; details: Homo sapiens, U-937, compound without TSQ cocktail, read-out: Off-target effect (IC50 cell-based assay)
In short: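 U937 cells (20,000/well) exposed to compound (10-point 1:3 titration from 36 μM, 0.3% DMSO) without TSQ cocktail for 48 h at 37 °C/5% CO2. Viability read as ATP by CellTiter-Glo luminescence; IC50 from 4-parameter logistic fit.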

[2] = test system: Immortalised Mouse Dermal Fibroblasts (MDFs); assay: Inhibition of TSI induced necroptosis in mouse dermal fibroblasts (CellTitre-Glo); details: Mus musculus, Fibroblast, 3 h, MDF cells, TSI cocktail (TNF, Smac mimetic, IDN-6556), read-out: Inhibition of TSI-induced necroptosis (IC50 cell-based assay) in MDF
In short: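 Immortalised MDFs (2200 cells/well, DMEM + 7.4% FBS) pretreated 30 min with compound (36 μM top, 1:3, 10 points, 0.3% DMSO), then 3 h with TNF 100 ng/ml, Smac mimetic 500 nM and IDN-6556 10 μM at 37 °C. Viability by CellTiter-Glo luminescence; IC50 from 4-parameter logistic fit.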

| SMILES | IC50 [1] [µM] | IC50 [2] [µM] |
| --- | --- | --- |
| C[C@H](Oc1cc(-c2nn(C)c3c(-c4cnn(CCC(F)(F)F)c4)cnc(N)c23)ccc1NS(=O)(=O)C(F)F)c1ccc(F)cc1 [Compound 131, (S)-N-(4-(4-amino-1-methyl-7-(1-(3,3,3-trifluoropropyl)-1H-pyrazol-4-yl)-1H-pyrazolo[4,3-c]pyridin-3-yl)-2-(1-(4-fluorophenyl)ethoxy)phenyl)-1,1-difluoromethanesulfonamide] | > 10 | 1 to 10 |
| Cn1nc(-c2ccc(NS(=O)(=O)C(F)F)c(OCc3ccc(Cl)c(F)c3)c2)c2c(N)ncc(-c3cnn(C4CCOCC4)c3)c21 [Compound 132, N-(4-(4-amino-1-methyl-7-(1-(tetrahydro-2H-pyran-4-yl)-1H-pyrazol-4-yl)-1H-pyrazolo[4,3-c]pyridin-3-yl)-2-((4-chloro-3-fluorobenzyl)oxy)phenyl)-1,1-difluoromethanesulfonamide] | > 10 | 1 to 10 |
| COCC(Oc1cc(-c2nn(C)c3c(-c4cnn(C5CCN(C)CC5)c4)cnc(N)c23)ccc1NS(=O)(=O)C(F)F)c1ccc(F)cc1 (stereo not shown) [Compound 139, N-(4-(4-amino-1-methyl-7-(1-(1-methylpiperidin-4-yl)-1H-pyrazol-4-yl)-1H-pyrazolo[4,3-c]pyridin-3-yl)-2-(1-(4-fluorophenyl)-2-methoxyethoxy)phenyl)-1,1-difluoromethanesulfonamide] | > 10 | 1 to 10 |
| CC(n1cc(-c2cnc(N)c3c(-c4ccc(NS(=O)(=O)C(F)F)c(O[C@@H](C)c5ccc(F)cc5)c4)nn(C)c23)cn1)C(F)(F)F (stereo partly drawn) [Compound 142, N-(4-(4-amino-1-methyl-7-(1-(1,1,1-trifluoropropan-2-yl)-1H-pyrazol-4-yl)-1H-pyrazolo[4,3-c]pyridin-3-yl)-2-((S)-1-(4-fluorophenyl)ethoxy)phenyl)-1,1-difluoromethanesulfonamide] | > 10 | 1 to 10 |
| C[C@H](Oc1cc(-c2nn(C)c3c(-c4cnn(C5CCN(C)C6(CC6)C5)c4)cnc(N)c23)ccc1NS(=O)(=O)C(F)F)c1ccc(F)cc1 (stereo partly drawn) [Compound 145, N-(4-(4-amino-1-methyl-7-(1-(4-methyl-4-azaspiro[2.5]octan-7-yl)-1H-pyrazol-4-yl)-1H-pyrazolo[4,3-c]pyridin-3-yl)-2-((S)-1-(4-fluorophenyl)ethoxy)phenyl)-1,1-difluoromethanesulfonamide] | > 10 | < 0.1 |
| C[C@H](Oc1cc(-c2nn(C)c3c(-c4cnn(C5CCC(F)(F)CC5)c4)cnc(N)c23)ccc1NS(=O)(=O)C(F)F)c1ccc(F)cc1 [Compound 146, (S)-N-(4-(4-amino-7-(1-(4,4-difluorocyclohexyl)-1H-pyrazol-4-yl)-1-methyl-1H-pyrazolo[4,3-c]pyridin-3-yl)-2-(1-(4-fluorophenyl)ethoxy)phenyl)-1,1-difluoromethanesulfonamide] | > 10 | 1 to 10 |
| CC1C(n2cc(-c3cnc(N)c4c(-c5ccc(NS(=O)(=O)C(F)F)c(O[C@@H](C)c6ccc(F)cc6)c5)nn(C)c34)cn2)CN1C (stereo partly drawn) [Compound 147, N-(4-(4-amino-7-(1-(1,2-dimethylazetidin-3-yl)-1H-pyrazol-4-yl)-1-methyl-1H-pyrazolo[4,3-c]pyridin-3-yl)-2-((S)-1-(4-fluorophenyl)ethoxy)phenyl)-1,1-difluoromethanesulfonamide] | > 10 | 0.1 to 1 |
| C[C@H](Oc1cc(-c2nn(C)c3c(-c4cnn(C5CCN(C)C(C(F)(F)F)C5)c4)cnc(N)c23)ccc1NS(=O)(=O)C(F)F)c1ccc(F)cc1 (stereo partly drawn) [Compound 148, N-(4-(4-amino-1-methyl-7-(1-(1-methyl-2-(trifluoromethyl)piperidin-4-yl)-1H-pyrazol-4-yl)-1H-pyrazolo[4,3-c]pyridin-3-yl)-2-((S)-1-(4-fluorophenyl)ethoxy)phenyl)-1,1-difluoromethanesulfonamide] | > 10 | 0.1 to 1 |
